Results from patent publication US20060178415A1, “Azole derivatives as antifungal agents” (priority 2002, published 2006).
≈ marks a conversion by molar mass, not a printed value. Where two headings read alike, the source gives them in different places.

Legend:
[1] = system: A. fum.; experiment: In vitro antifungal MIC, NCCLS M38P broth method in RPMI 1640/MOPS pH 7; format: cell-based, Aspergillus fumigatus; conditions: for MIC: Aspergillus fumigatus
Excerpt: The in vitro evaluation of the antifungal activity of the compound of this invention (as shown in Table I) can be performed by determining the minimum inhibitory concentration (MIC) which is the concentration of the test compound in Rosewell Park Memorial Institute (RPMI) 1640 liquid medium buffered with 3-(Morpholino)propane sulfonic acid (MOPS) to pH 7, at which there is significant inhibition of the particular fungi. In practice the National Committee for Clinical Laboratory Standard (NCCLS) M27A document for Candida and Cryptococcus and M38P for Aspergillus was used to determine the MIC and readings recorded only when the Quality Control results fell into the acceptable range. After MIC results had been recorded, 100 μL from each of the well showing no growth was spread over Sabouraud Dextrose Agar (SDA) to determine the minimum fungicidal concentration (MFC).

[2] = system: ergosterol P^450DM in A. fumigatus lysates; conditions: cited from earlier work
[3] = molecular target: T1, ergosterol P^450DM in C. albicans lysates (Candida albicans, UniProt P10613); conditions: cited from earlier work
T1 construct: host or cells: C. albicans lysate

[4] = pH 7, read-out: MIC (A. fum.) 1008
[5] = pH 7, read-out: MIC (A. fum.) Si-l
[6] = A. fumigatus strain 1008, RPMI 1640, MOPS pH 7, read-out: MIC (A. fum.) 1008
[7] = A. fumigatus strain Si-l, RPMI 1640, MOPS pH 7, read-out: MIC (A. fum.) Si-l
[8] = A. fumigatus strain 1008, RPMI 1640, MOPS pH 7
[9] = A. fumigatus strain Si-l, RPMI 1640, MOPS pH 7

T1 sequence (P10613 whole entry): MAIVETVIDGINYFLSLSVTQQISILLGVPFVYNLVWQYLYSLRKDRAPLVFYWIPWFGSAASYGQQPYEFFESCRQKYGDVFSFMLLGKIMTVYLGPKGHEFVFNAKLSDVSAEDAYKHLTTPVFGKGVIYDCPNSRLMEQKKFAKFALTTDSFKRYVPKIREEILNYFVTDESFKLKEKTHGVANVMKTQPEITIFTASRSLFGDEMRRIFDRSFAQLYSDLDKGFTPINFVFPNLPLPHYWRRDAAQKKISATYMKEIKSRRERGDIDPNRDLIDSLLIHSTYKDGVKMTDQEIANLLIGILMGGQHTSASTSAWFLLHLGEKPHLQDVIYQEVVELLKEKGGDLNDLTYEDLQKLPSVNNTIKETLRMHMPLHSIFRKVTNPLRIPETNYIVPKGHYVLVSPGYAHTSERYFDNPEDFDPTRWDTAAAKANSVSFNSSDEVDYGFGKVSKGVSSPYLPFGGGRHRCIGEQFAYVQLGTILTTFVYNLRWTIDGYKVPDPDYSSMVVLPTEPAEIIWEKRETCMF

MIC [1, 6] [µg/mL]	MIC [1, 7] [µg/mL]	Compound	MIC (A. fum.) 1008 [1, 8] [µg/mL]	MIC (A. fum.) Si-l [1, 9] [µg/mL]	other results
		C[C@@H](N(N)C(=S)Nc1cnc2ccccc2c1)[C@](O)(Cn1cncn1)c1ccc(F)cc1F [Compound No. 39, 2-[(1R,2R)-2-(2,4-Difluorophenyl)-2-hydroxy-1-methyl-3-(1H-1,2,4-triazol-1-yl)propyl]-4-[quinolin-3-yl]thiosemicarbazide]			MIC [1, 4]: 16 µg/mL (≈ 34.1 µM); MIC [1, 5]: 4 µg/mL (≈ 8.52 µM)
		C[C@@H](n1ncn(-c2ccc(O)cc2)c1=S)[C@](O)(Cn1cncn1)c1ccc(F)cc1F [Compound No. 41, 2-[(1R,2R)-2-(2,4-difluorophenyl)-2-hydroxy-1-methyl-3-(1,2,4-triazol-1-yl)propyl]-4-[4-hydroxyphenyl]-(2H,4H)-1,2,4-triazol-3-thione]			MIC [1, 4]: > 16 µg/mL; MIC [1, 5]: > 16 µg/mL
0.25 (≈ 0.448 µM)	0.125 (≈ 0.224 µM)	C[C@@H](n1ncn(-c2ccc(OCC(F)(F)C(F)F)cc2)c1=S)[C@](O)(Cn1cncn1)c1ccc(F)cc1F [Compound No. 42, 2-[(1R,2R)-2-(2,4-difluorophenyl)-2-hydroxy-1-methyl-3-(1,2,4-triazol-1-yl)propyl]-4-[4-(2,2,3,3-tetrafluoropropoxy)phenyl]-(2H,4H)-1,2,4-triazol-3-thione]			
		C[C@@H](n1ncn(-c2ccc([N+](=O)[O-])cc2)c1=S)[C@](O)(Cn1cncn1)c1ccc(F)cc1F [Compound No. 43, 2-[(1R,2R)-2-(2,4-difluorophenyl)-2-hydroxy-1-methyl-3-(1,2,4-triazol-1-yl)propyl]-4-[4-nitrophenyl]-(2H,4H)-1,2,4-triazol-3-thione]			MIC [1, 4]: 4 µg/mL (≈ 8.45 µM); MIC [1, 5]: 2 µg/mL (≈ 4.22 µM)
		C[C@@H](n1ncn(-c2ccc(-n3ncnn3)cc2)c1=S)[C@](O)(Cn1cncn1)c1ccc(F)cc1F [Compound No. 44]	2 (≈ 4.03 µM)	2 (≈ 4.03 µM)	
1 (≈ 2.01 µM)	0.5 (≈ 1.01 µM)	C[C@@H](n1ncn(-c2ccc(C(F)(F)F)cc2)c1=S)[C@](O)(Cn1cncn1)c1ccc(F)cc1F [Compound No. 45, 2-[(1R,2R)-2-(2,4-difluorophenyl)-2-hydroxy-1-methyl-3-(1,2,4-triazol-1-yl)propyl]-4-[4-trifluoromethylphenyl]-(2H,4H)-1,2,4-triazol-3-thione]			
2 (≈ 3.9 µM)	0.5 (≈ 0.976 µM)	C[C@@H](n1ncn(-c2ccc(OC(F)(F)F)cc2)c1=S)[C@](O)(Cn1cncn1)c1ccc(F)cc1F [Compound No. 46, 2-[(1R,2R)-2-(2,4-Difluorophenyl)-2-hydroxy-1-methyl-3-(1H-1,2,4-triazol-1-yl)propyl]-4-[4-trifluoromethoxyphenyl]-(2H,4H)-1,2,4-triazol-3-thione]			
		COC(=O)C(c1ccccc1)n1cnn([C@H](C)[C@](O)(Cn2cncn2)c2ccc(F)cc2F)c1=S (some centres unmarked) [Compound No. 50]	>16	>16	
		COC(=O)C(CC(C)C)n1cnn([C@H](C)[C@](O)(Cn2cncn2)c2ccc(F)cc2F)c1=S (stereo partly drawn) [Compound No. 51, Methyl-2-isobutyl-2-[[(1R,2R)-2-(2,4-difluorophenyl)-2-hydroxy-1-methyl-3-(1H-1,2,4-triaolyl)propyl]-(2H,4H)-1,2,4-triazol-3-thion-4-yl]acetate]	>16	<16	
		COC(=O)C(CCSC)n1cnn([C@H](C)[C@](O)(Cn2cncn2)c2ccc(F)cc2F)c1=S (stereo partly drawn) [Compound No. 52, Methyl-2-methylthioethyl-2-[[(1R,2R)-2-(2,4-difluorophenyl)-2-hydroxy-1-methyl-3-(1H-1,2,4-triaolyl)propyl]-(2H,4H)-1,2,4-triazol-3-thion-4-yl]acetate]	>16	>16	
		C[C@@H](n1ncn(Cc2ccco2)c1=S)[C@](O)(Cn1cncn1)c1ccc(F)cc1F [Compound No. 53, 2-[(1R,2R)-2-(2,4-Difluorophenyl)-2-hydroxy-1-methyl-3-(1H-1,2,4-triazol-1-yl)propyl]-4-[2-furanmethyl]-(2H,4H)-1,2,4-triazol-3-thione]	8 (≈ 18.5 µM)	4 (≈ 9.25 µM)	
4 (≈ 8.62 µM)	2 (≈ 4.31 µM)	C[C@@H](n1ncn(-c2ccc(Cl)cn2)c1=S)[C@](O)(Cn1cncn1)c1ccc(F)cc1F [Compound No. 55, 2-[(1R,2R)-2-(2,4-Difluorophenyl)-2-hydroxy-1-methyl-3-(1H-1,2,4-triazol-1-yl)propyl]-4-[3-chloropyridin-6-yl]-(2H,4H)-1,2,4-triazol-3-thione]			
		C[C@@H](c1ncncc1F)[C@](O)(Cn1cncn1)c1ccc(F)cc1F [Voriconazole]			fold greater inhibition of ergosterol P450DM compared to fluconazole [2]: 160 fold; fold greater inhibition of ergosterol P450DM compared to fluconazole [3]: 1.6 fold
